Tests used:
human P-gp (ABCB1) = molecular target: T1, human P-gp (ABCB1) (Homo sapiens, UniProt P08183); experiment: Concentration equilibrium transport assay (CETA), LLC-PK1 cells transduced with human ABCB1; assay type: in vitro ADME; settings: omacetaxine 100 nM, up to 4 h
T1 construct: expressed in transfected cells; host or cells: LLC-PK1 (pig kidney) cells transduced with human ABCB1 (LLC-MDR1)
Description: (§1) In vitro transport studies were performed using the LLC pig kidney cell line (LLC-PK1) and sub-lines transduced with murine Abcb1a (LLC-Mdr1a) or human ABCB1 (LLC-MDR1). Similarly, in vitro transport studies were conducted in the parental Madin–Darby canine kidney (MDCK) type II cell line (MDCK-Parent) and murine Abcg2 (MDCK-Bcrp1) or human ABCG2 (MDCK-BCRP) transduced sublines. Concentration equilibrium transport assays (CETA) were performed as previously described. Briefly, cells were grown on polycarbonate membrane filters (3.0 µm pores, 24 mm diameter; Costar Corning, NY, USA) for 4 days. Next, 2 mL of MEM medium containing 10% FCS and omacetaxine (100 nM) was added to both the apical and basal compartments. Then, [14C]-inulin ([…]) was added basolateral to check the membrane integrity. Zosuquidar 1 μM was added to all wells containing MDCK cells to inhibit endogenous (canine) ABCB1. […] The integrity of the membrane was checked by taking 20 μL samples from both apical and basolateral sides for radioactivity counting. […] OMA concentrations were measured using an LC-MS/MS system that consisted of an UltiMate 3000 LC System (Dionex, Sunnyvale, CA, USA) and an API 4000 mass spectrometer (Sciex, Framingham, MA, USA).

murine P-gp (Abcb1a) = molecular target: T2, murine P-gp (Abcb1a) (Mus musculus, UniProt P21447); experiment: Concentration equilibrium transport assay (CETA), LLC-PK1 cells transduced with murine Abcb1a; assay type: in vitro ADME; settings: omacetaxine 100 nM, up to 4 h
T2 construct: expressed in transfected cells; host or cells: LLC-PK1 (pig kidney) cells transduced with murine Abcb1a (LLC-Mdr1a)
Description: as §1

human BCRP (ABCG2) = molecular target: T3, human BCRP (ABCG2) (Homo sapiens, UniProt Q9UNQ0); experiment: Concentration equilibrium transport assay (CETA), MDCK cells transduced with human ABCG2, with zosuquidar; assay type: in vitro ADME; settings: omacetaxine 100 nM, zosuquidar 1 μM, up to 4 h
T3 construct: expressed in transfected cells; host or cells: MDCK type II (canine kidney) cells transduced with human ABCG2 (MDCK-BCRP)
T3 sequence (Q9UNQ0 1-655): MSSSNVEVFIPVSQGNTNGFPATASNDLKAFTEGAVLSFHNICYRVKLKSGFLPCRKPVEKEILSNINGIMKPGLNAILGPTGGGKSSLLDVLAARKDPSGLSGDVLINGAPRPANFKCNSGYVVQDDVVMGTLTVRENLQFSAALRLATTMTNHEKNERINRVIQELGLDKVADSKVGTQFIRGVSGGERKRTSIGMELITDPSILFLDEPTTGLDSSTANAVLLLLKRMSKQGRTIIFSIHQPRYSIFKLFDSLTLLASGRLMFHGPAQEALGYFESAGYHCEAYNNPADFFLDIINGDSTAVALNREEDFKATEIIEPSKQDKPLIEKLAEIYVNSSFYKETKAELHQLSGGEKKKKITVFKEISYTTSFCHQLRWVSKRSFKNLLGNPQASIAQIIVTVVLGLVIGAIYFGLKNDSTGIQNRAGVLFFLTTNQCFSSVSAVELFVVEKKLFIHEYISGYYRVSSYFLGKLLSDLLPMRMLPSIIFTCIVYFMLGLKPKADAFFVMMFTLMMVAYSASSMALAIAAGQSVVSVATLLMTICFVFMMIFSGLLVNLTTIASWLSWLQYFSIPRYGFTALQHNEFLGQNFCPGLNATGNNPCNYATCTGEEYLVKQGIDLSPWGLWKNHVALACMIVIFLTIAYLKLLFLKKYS
Description: as §1

murine BCRP (Abcg2) = molecular target: T4, murine BCRP (Abcg2) (Mus musculus, UniProt Q7TMS5); experiment: Concentration equilibrium transport assay (CETA), MDCK cells transduced with murine Abcg2, with zosuquidar; assay type: in vitro ADME; settings: omacetaxine 100 nM, zosuquidar 1 μM, up to 4 h
T4 construct: expressed in transfected cells; host or cells: MDCK type II (canine kidney) cells transduced with murine Abcg2 (MDCK-Bcrp1)
T4 sequence (Q7TMS5 1-657): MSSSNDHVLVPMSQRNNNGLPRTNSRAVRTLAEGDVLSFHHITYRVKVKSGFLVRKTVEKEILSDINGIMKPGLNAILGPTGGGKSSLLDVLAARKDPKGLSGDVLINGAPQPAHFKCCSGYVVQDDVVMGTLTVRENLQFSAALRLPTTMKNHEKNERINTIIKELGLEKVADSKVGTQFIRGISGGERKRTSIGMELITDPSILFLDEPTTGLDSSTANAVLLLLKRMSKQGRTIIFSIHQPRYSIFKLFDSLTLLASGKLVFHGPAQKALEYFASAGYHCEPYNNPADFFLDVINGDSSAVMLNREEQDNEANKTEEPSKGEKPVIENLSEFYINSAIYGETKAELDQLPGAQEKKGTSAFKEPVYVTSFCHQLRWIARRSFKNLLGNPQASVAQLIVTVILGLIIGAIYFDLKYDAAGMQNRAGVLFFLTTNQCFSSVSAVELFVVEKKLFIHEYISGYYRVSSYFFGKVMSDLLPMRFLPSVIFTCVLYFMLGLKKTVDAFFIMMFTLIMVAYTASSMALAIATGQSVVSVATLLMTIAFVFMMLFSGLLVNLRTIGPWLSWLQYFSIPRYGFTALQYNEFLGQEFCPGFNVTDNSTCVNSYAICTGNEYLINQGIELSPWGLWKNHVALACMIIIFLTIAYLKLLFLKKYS
Description: as §1

[1] = source not stated; cited from earlier work

T1 sequence (P08183 whole entry): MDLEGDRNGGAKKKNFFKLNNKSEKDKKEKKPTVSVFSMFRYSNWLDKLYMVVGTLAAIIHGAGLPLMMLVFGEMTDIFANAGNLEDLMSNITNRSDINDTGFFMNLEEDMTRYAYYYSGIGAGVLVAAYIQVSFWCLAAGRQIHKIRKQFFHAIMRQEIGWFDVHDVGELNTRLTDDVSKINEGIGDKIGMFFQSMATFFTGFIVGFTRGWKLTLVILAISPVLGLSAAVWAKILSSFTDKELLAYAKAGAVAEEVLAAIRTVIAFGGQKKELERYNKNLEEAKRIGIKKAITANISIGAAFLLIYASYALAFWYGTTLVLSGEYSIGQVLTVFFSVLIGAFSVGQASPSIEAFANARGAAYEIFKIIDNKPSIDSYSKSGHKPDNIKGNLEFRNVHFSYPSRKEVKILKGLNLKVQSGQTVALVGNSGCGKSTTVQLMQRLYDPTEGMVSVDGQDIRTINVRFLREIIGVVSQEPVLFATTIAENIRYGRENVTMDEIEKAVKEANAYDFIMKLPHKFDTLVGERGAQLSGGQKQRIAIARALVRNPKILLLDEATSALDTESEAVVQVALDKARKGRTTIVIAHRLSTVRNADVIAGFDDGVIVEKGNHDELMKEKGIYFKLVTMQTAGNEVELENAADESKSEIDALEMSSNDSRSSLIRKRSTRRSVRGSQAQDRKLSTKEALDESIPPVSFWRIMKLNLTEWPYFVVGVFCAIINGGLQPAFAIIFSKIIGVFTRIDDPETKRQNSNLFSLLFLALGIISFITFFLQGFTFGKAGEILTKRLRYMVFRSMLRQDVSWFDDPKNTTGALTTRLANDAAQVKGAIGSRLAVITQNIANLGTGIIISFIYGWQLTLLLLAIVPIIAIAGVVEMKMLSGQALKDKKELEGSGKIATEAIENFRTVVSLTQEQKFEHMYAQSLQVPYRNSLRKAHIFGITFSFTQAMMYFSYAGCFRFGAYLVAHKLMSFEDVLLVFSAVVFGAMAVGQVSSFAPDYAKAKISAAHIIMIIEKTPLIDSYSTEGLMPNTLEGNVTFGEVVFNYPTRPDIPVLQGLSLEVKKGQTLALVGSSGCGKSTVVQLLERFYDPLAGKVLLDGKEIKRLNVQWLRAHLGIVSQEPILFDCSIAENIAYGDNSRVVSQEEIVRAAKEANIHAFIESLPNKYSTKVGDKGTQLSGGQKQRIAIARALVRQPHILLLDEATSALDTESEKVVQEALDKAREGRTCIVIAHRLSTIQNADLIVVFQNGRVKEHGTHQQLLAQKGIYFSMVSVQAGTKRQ
T2 sequence (P21447 whole entry): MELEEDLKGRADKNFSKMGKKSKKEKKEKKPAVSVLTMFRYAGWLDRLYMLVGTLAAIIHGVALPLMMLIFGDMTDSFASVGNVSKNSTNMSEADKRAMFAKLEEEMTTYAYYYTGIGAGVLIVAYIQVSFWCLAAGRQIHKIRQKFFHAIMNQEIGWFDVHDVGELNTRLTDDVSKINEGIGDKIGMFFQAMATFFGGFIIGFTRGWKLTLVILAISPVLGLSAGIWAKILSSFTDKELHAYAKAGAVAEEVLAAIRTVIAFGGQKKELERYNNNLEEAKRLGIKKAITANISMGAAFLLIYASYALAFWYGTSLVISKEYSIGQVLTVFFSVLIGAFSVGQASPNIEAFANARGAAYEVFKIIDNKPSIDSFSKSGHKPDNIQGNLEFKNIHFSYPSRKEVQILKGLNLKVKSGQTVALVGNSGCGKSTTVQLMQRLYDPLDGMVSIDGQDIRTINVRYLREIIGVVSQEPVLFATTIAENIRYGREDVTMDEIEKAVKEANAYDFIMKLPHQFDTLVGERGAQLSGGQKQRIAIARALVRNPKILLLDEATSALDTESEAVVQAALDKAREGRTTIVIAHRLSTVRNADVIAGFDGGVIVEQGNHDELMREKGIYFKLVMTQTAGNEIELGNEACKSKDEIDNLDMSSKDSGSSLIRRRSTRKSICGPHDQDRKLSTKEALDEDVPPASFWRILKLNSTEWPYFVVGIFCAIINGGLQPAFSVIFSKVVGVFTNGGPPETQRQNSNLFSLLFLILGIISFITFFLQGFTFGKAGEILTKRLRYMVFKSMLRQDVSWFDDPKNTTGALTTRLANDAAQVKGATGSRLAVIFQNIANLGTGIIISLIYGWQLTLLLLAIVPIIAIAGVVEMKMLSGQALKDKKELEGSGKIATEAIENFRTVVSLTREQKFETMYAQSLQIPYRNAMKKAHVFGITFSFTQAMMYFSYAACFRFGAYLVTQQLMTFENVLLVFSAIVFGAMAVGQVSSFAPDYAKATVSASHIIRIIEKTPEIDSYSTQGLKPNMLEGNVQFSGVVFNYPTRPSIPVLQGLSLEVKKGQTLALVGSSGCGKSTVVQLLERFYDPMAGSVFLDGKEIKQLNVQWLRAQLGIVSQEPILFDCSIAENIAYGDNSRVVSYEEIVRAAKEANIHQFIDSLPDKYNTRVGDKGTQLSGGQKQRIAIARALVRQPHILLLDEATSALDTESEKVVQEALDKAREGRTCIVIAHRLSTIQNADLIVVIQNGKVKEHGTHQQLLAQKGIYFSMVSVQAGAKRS

For `COC(=O)C[C@](O)(CCCC(C)(C)O)C(=O)O[C@@H]1C(OC)=C[C@]23CCCN2CCc2cc4c(cc2[C@H]13)OCO4` [OMA, Omacetaxine mepesuccinate], the “substrate of P-gp (translocation basolateral to apical)” value (human P-gp (ABCB1)) was “weak substrate”, the “substrate of P-gp (translocation basolateral to apical)” value (murine P-gp (Abcb1a)) was “weak substrate” and the “substrate of BCRP (translocation between apical and basolateral compartments)” value (human BCRP (ABCG2)) was “not a substrate”. The “substrate of BCRP (translocation between apical and basolateral compartments)” value (murine BCRP (Abcg2)) was “not a substrate” and the logP value [1] was 1.88.
